{
  "source": "paper PMC3488005",
  "about": "“A yeast expression system for functional and pharmacological studies of the malaria parasite Ca^2+/H^+ antiporter” (Malaria Journal, 2012)",
  "key": {"PfCHA": {"molecular_target": "T1, PfCHA (Plasmodium falciparum, UniProt C6KSN3)", "T1 construct": "gene PF3D7_0603500; full-length ORF (about 1321 bp, approx. 49 kDa) in pGREG505 (GAL1 promoter), expressed in S. cerevisiae vcx1 knock-out (Y03825), vacuole membrane; apoaequorin co-expressed as reporter", "T1 sequence (C6KSN3 1-441)": "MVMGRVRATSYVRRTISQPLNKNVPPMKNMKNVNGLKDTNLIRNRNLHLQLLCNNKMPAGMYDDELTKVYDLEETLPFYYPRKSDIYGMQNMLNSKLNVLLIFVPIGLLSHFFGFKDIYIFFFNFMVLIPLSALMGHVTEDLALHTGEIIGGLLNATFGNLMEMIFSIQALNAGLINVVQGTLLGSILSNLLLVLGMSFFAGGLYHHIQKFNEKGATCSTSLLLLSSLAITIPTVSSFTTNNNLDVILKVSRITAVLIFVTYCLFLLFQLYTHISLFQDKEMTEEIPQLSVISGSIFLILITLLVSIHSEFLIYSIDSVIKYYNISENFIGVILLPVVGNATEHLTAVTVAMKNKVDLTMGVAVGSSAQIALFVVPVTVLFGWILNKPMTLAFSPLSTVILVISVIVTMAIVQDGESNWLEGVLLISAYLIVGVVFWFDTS", "assay": "whole-cell apoaequorin luminescence of cytosolic Ca2+ (AUC […]-16 s), 96-well", "format": "cell-based"}, "Vcx1p (VCX1)": {"molecular_target": "T2, Vcx1p (VCX1) (Saccharomyces cerevisiae, UniProt Q99385)", "T2 construct": "full-length gene (1236 bp) in pGREG505 (GAL1 promoter), re-expressed in S. cerevisiae vcx1 knock-out (Y03825); apoaequorin co-expressed as reporter", "T2 sequence (Q99385 1-411)": "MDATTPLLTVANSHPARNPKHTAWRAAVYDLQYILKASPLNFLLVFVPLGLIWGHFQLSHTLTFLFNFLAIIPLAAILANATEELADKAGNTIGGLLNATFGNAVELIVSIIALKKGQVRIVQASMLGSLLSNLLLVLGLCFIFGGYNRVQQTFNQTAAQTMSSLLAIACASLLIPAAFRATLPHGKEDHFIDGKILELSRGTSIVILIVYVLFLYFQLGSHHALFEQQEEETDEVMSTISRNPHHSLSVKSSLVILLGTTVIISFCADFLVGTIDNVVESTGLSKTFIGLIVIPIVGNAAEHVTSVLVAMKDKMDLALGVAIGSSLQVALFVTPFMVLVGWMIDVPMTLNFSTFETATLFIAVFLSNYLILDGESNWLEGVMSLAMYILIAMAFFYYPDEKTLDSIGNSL", "assay": "whole-cell apoaequorin luminescence of cytosolic Ca2+ (AUC […]-16 s), 96-well", "format": "cell-based", "details": "read-out: concentrations at which their transport was inhibited by 50%"}},
  "data": [
    {"smiles": "N=C(N)SCCc1ccc(OCc2ccc([N+](=O)[O-])cc2)cc1", "note": "[KB-R7943]", "values": [
      {"measurement": "IC50", "setting": "PfCHA", "result": 17.5, "unit": "µM"},
      {"measurement": "IC50", "setting": "Vcx1p (VCX1)", "result": 12.5, "unit": "µM"}
    ]}
  ]
}
